The results in this text go back to EP1268431B1 (Wyeth, priority 2000, dated 2001).

Assay [1] deals with human adenocarcinoma cell line CaCo-2. As to the kind of experiment: Cell Based Screen for Inhibitors of Raf Kinase, CaCo-2 cells. The following applies: CaCo-2, four days, SRB. On the procedure:
(§1) • Cell Lines: Human adenocarcinoma cell line LoVo which is known to be growth inhibited by low nM concentrations of a reference standard inhibitor of Ras and human adenocarcinoma cell line CaCo-2, which is known to be growth resistant to the same reference compound. • Cell Media: RPMI 1640 with 10% Fetal Bovine Serum supplemented with L-glutamine and Pennicilin/Streptomycin. • Compounds: Supplied usually as a 10 mM stock in 100% DMSO. • Normal Saline: 150 mM NaCl • Trichloroacetic Acid (TCA): 50% (w/v) in water • Sulforhodamine B (SRB): 0.4% (w/v) in 1% Acetic Acid • Tris Base: 10 mM in water
(§2) Cells are plated at 2000 cells per well for cell line LoVo and 1500 cells for cell line CaCo-2 in 96 well plates. Cells are plated in media (200 µl) and allowed to adhere overnight at 37° C. At 24 hours post plating, compounds are added directly at a volume of 0.5 µl. For the qualitative screen (compounds screened at 25 µM) compound is added directly to cells. For the quantitative screen, compound is first diluted in DMSO to generate concentrations of compound or reference standard of: 1, 5, 10 and 25 µM. It is advisable to make the dilutions in an identical 96 well plate so that compounds may be added using a multichannel micropipettor set at 0.5 µl. The cells are then incubated for four days after which the media is removed using a 12 well manifold by first tipping the plate forward at a 45 degree angle and then inserting the manifold in an upright orientation to prevent the tips of the manifold from disturbing cells at the bottom of the plate. 200 µl of normal saline is then added to each well using an 8 well multichannel pipettor, followed by the careful addition of 50 µl of 50% TCA. The plates are then incubated for 2 hours at 4 ° C, after which the supernatant is removed using the same technique as above and the plated washed twice with 200 µl water. The plates are then air dried and 50 µl of SRB stock solution is carefully added so that the entire bottom of each well is covered. This again may be used using an 8 well multichannel pipettor. The SRB is incubated with fixed cells for 15 minutes at room temperature after which the SRB is removed with the manifold as described above and the plates washed twice with 350 µl of 1% acetic acid per well each time.The plates are then air dried after which the bound SRB is released from protein by the addition of 200 µl of Tris base. Resolubilizing the SRB is aided by placing the plates on a rotator for 15-30 minutes. The absorbance of each well is determined at 550 or 562 nm using a microtiter plate reader.
(§3) Each compound or dilution thereof is performed in triplicate. Outliers are identified by visual inspection of the data. Each plate should have a "0" control (vehicle only).
(§4) Quantitative Assay: A standard curve is constructed by plotting the concentration of compound against the average absorbance calculated at that concentration. A curve is plotted and the concentration at which the curve passes through the 50% the absorbance mark seen in the "0" control well is the IC50 calculated for that compound. […]

The subject of assay [2] is Human adenocarcinoma cell line LoVo. As to the kind of experiment: Cell Based Screen for Inhibitors of Raf Kinase, LoVo cells. The following applies: four days, SRB. The procedure:
as §1, §2, §3, §4

As usually defined, the IC50 is the concentration needed to halve the response being measured. Read a high IC50 as lower potency. For the molecule `Cn1ccnc1Sc1ccc(Nc2c(C#N)cnc3cc(-c4ccc(CN5CCC(N6CCCC6)CC5)cn4)ccc23)cc1Cl` [Example 173, 4-{3-chloro-4-[(1-methyl-1H-imidazol-2-yl)sulfanyl]anilino}-7-(5-{[4-(1-pyrrolidinyl)-1-piperidinyl]methyl}-2-pyridinyl)-3-quinolinecarbonitrile], the IC50 is above 1000 nM in assay [1] (Homo sapiens, Caco-2, 96 h) and 25 nM in assay [2] (Homo sapiens, 96 h).
In the case of `Cn1ccnc1Sc1ccc(Nc2c(C#N)cnc3cc(-c4ccc(CN5CCC(C(=O)O)CC5)cn4)ccc23)cc1Cl` [Example 175, 1-{[6-(4-{3-chloro-4-[(1-methyl-1H-imidazol-2-yl)sulfanyl]anilino}-3-cyano-7-quinolinyl)-3-pyridinyl]methyl}-4-piperidinecarboxylic acid], the half-maximal inhibitory concentration (IC50) was above 1000 nM in assay [1] (Homo sapiens, Caco-2, 96 h) and 330 nM in assay [2] (Homo sapiens, 96 h).
As for `Cn1ccnc1Sc1ccc(Nc2c(C#N)cnc3cc(-c4ccc(CN5CCOCC5)cn4)ccc23)cc1Cl` [Example 187, 4-{3-chloro-4-[(1-methyl-1H-imidazol-2-yl)sulfanyl]anilino}-7-[5-(4-morpholinylmethyl)-2-pyridinyl]-3-quinolinecarbonitrile], the IC50 was 5500 nM in assay [1]; above 10000 nM in assay [1] (Homo sapiens, Caco-2, 96 h); 9 nM in assay [2].
As for `CN1CCN(Cc2ccc(-c3ccc4c(Nc5ccc(Sc6nccn6C)c(Cl)c5)c(C#N)cnc4c3)nc2)CC1` [Example 189, 4-{3-chloro-4-[(1-methyl-1H-imidazol-2-yl)sulanyl]anilino}-7-{5-[(4-methyl-1-piperazinyl)methyl]-2-pyridinyl}-3-quinolinecarbonitrile], the IC50 in assay [1] (Homo sapiens, Caco-2, 96 h) was determined as 1250 nM; in assay [2] (Homo sapiens, 96 h) it was 6 nM.
In the case of `CN1CCN(c2ccc(-c3ccc4c(Nc5ccc(Sc6nccn6C)c(Cl)c5)c(C#N)cnc4c3)cn2)CC1` [Example 196, 4-{3-chloro-4-[(1-methyl-1H-imidazol-2-yl)sulfanyl]anilino}-7-[6-(4-methyl-1-piperazinyl)-3-pyridinyl]-3-quinolinecarbonitrile], the half-inhibitory concentration (IC50) in assay [1] was 550 nM; in assay [1] (Homo sapiens, Caco-2, 96 h) it was 1100 nM; in assay [2] (Homo sapiens, 96 h) it was below 5 nM; in assay [2] it was 2.9 nM.
As for `Cn1ccnc1Sc1ccc(Nc2c(C#N)cnc3cc(-c4cccc(CN5CCOCC5)n4)ccc23)cc1Cl` [Example 199, 4-{3-chloro-4-[(1-methyl-1H-imidazol-2-yl)sulfanyl]anilino}-7-[6-(4-morpholinylmethyl)-2-pyridinyl]-3-quinolinecarbonitrile], the concentration for half-maximal inhibition (IC50) is above 1000 nM in assay [1] (Homo sapiens, Caco-2, 96 h) and 9.5 nM in assay [2] (Homo sapiens, 96 h).
Consider `CCN1CCN(Cc2cccc(-c3ccc4c(Nc5ccc(Sc6nccn6C)c(Cl)c5)c(C#N)cnc4c3)n2)CC1` [Example 201, 4-{3-chloro-4-[(1-methyl-1H-imidazol-2-yl)sulfanyl]anilino}-7-{6-[(4-ethyl-1-piperazinyl)methyl]-2-pyridinyl}-3-quinolinecarbonitrile], for which the IC50 in assay [1] (Homo sapiens, Caco-2, 96 h) is above 1000 nM; in assay [2] (Homo sapiens, 96 h), 8.4 nM.
`CN1CCN(Cc2cccc(-c3ccc4c(Nc5ccc(Sc6nccn6C)c(Cl)c5)c(C#N)cnc4c3)n2)CC1` [Example 202, 4-{3-chloro-4-[(1-methyl-1H-imidazol-2-yl)sulfanyl]anilino}-7-{6-[(4-methyl-1-piperazinyl)methyl]-2-pyridinyl}-3-quinolinecarbonitrile]: the IC50 in assay [1] (Homo sapiens, Caco-2, 96 h) is above 1000 nM; in assay [2] (Homo sapiens, 96 h), 6.5 nM.
For `Cn1ccnc1Sc1ccc(Nc2c(C#N)cnc3cc(-c4cc(CN5CCOCC5)ccn4)ccc23)cc1Cl` [Example 203, 4-({3-chloro-4-[(1-methyl-1H-imidazol-2-yl)sulfanyl]phenyl}amino)-7-[4-(4-morpholinylmethyl)-2-pyridinyl]-3-quinolinecarbonitrile], in that order: above 1000 nM and 9.7 nM.
Regarding `CCN1CCN(Cc2ccnc(-c3ccc4c(Nc5ccc(Sc6nccn6C)c(Cl)c5)c(C#N)cnc4c3)c2)CC1` [Example 205, 4-({3-chloro-4-[(1-methyl-1H-imidazol-2-yl)sulfanyl]phenyl}amino)-7-{4-[(4-ethyl-1-piperazinyl)methyl]-2-pyridinyl}-3-quinolinecarbonitrile], the IC50 in assay [1] (Homo sapiens, Caco-2, 96 h) amounted to 940 nM; in assay [2] (Homo sapiens, 96 h) it was 275 nM.
As for `CN1CCN(Cc2ccnc(-c3ccc4c(Nc5ccc(Sc6nccn6C)c(Cl)c5)c(C#N)cnc4c3)c2)CC1` [Example 206, 4-({3-chloro-4-[(1-methyl-1H-imidazol-2-yl)sulfanyl]phenyl}amino)-7-{4-[(4-methyl-1-piperazinyl)methyl]-2-pyridinyl}-3-quinolinecarbonitrile], the IC50 is above 1000 nM in assay [1] (Homo sapiens, Caco-2, 96 h) and 280 nM in assay [2] (Homo sapiens, 96 h).
With `Cn1ccnc1Sc1ccc(Nc2c(C#N)cnc3cc(-c4ccc(N5CCC(N6CCCC6)CC5)nc4)ccc23)cc1Cl` [Example 210, 4-({3-chloro-4-[(1-methyl-1H-imidazol-2-yl)sulfanyl]phenyl}amino)-7-{6-[4-(1-pyrrolidinyl)-1-piperidinyl]-3-pyridinyl}-3-quinolinecarbonitrile], the IC50 in assay [1] (Homo sapiens, Caco-2, 96 h) worked out at 590 nM; in assay [2] (Homo sapiens, 96 h), 3.2 nM.
The corresponding values for `COCCN(C)c1ccc(-c2ccc3c(Nc4ccc(Sc5nccn5C)c(Cl)c4)c(C#N)cnc3c2)cn1` [Example 212, 4-({3-chloro-4-[(1-methyl-1H-imidazol-2-yl)sulfanyl]phenyl}amino)-7-{6-[(2-methoxyethyl)(methyl)amino]-3-pyridinyl}-3-quinolinecarbonitrile] are 780 nM and 4 nM.
As for `CCOC(=O)C1CCN(c2ccc(-c3ccc4c(Nc5ccc(Sc6nccn6C)c(Cl)c5)c(C#N)cnc4c3)cn2)CC1` [Example 213, ethyl 1-{5-[4-({3-chloro-4-[(1-methyl-1H-imidazol-2-yl)sulfanyl]phenyl}amino)-3-cyano-7-quinolinyl]-2-pyridinyl}-4-piperidinecarboxylate], the IC50 is above 1000 nM in assay [1] (Homo sapiens, Caco-2, 96 h) and 45.2 nM in assay [2] (Homo sapiens, 96 h).
Regarding `Cn1ccnc1Sc1ccc(Nc2c(C#N)cnc3cc(-c4ccc(N5CCC(O)CC5)nc4)ccc23)cc1Cl` [Example 214, 4-({3-chloro-4-[(1-methyl-1H-imidazol-2-yl)sulfanyl]phenyl}amino)-7-[6-(4-hydroxy-1-piperidinyl)-3-pyridinyl]-3-quinolinecarbonitrile], the IC50 was above 1000 nM in assay [1] (Homo sapiens, Caco-2, 96 h) and 5.7 nM in assay [2] (Homo sapiens, 96 h).
As to `Cn1ccnc1Sc1ccc(Nc2c(C#N)cnc3cc(-c4ccc(N5CCN(CCO)CC5)nc4)ccc23)cc1Cl` [Example 215, 4-({3-chloro-4-[(1-methyl-1H-imidazol-2-yl)sulfanyl]phenyl}amino)-7-{6-[4-(2-hydroxyethyl)-1-piperazinyl]-3-pyridinyl}-3-quinolinecarbonitrile], the IC50 was above 1000 nM in assay [1] (Homo sapiens, Caco-2, 96 h) and 3.5 nM in assay [2] (Homo sapiens, 96 h).
As to `CN(CCO)c1ccc(-c2ccc3c(Nc4ccc(Sc5nccn5C)c(Cl)c4)c(C#N)cnc3c2)cn1` [Example 216, 4-({3-chloro-4-[(1-methyl-1H-imidazol-2-yl)sulfanyl]phenyl}amino)-7-{6-[(2-hydroxyethyl)(methyl)amino]-3-pyridinyl}-3-quinolinecarbonitrile], the IC50 was above 1000 nM in assay [1] (Homo sapiens, Caco-2, 96 h) and 7 nM in assay [2] (Homo sapiens, 96 h).
Take `Cn1ccnc1Sc1ccc(Nc2c(C#N)cnc3cc(-c4ccc(CN5CCN(CCO)CC5)cn4)ccc23)cc1Cl` [Example 217, 4-({3-chloro-4-[(1-methyl-1H-imidazol-2-yl)sulfanyl]phenyl}amino)-7-(5-{[4-(2-hydroxyethyl)-1-piperazinyl]methyl}-2-pyridinyl)-3-quinolinecarbonitrile]: the IC50 was above 1000 nM in assay [1] (Homo sapiens, Caco-2, 96 h) and 36 nM in assay [2] (Homo sapiens, 96 h).
`Cn1ccnc1Sc1ccc(Nc2c(C#N)cnc3cc(-c4ccc(CN5CCSCC5)cn4)ccc23)cc1Cl` [Example 219]: the IC50 is above 1000 nM in assay [1] (Homo sapiens, Caco-2, 96 h) and 15 nM in assay [2] (Homo sapiens, 96 h).
With `CCN1CCN(Cc2ccc(-c3ccc4c(Nc5ccc(Sc6nccn6C)c(Cl)c5)c(C#N)cnc4c3)cn2)CC1` [Example 220, 4-({3-chloro-4-[(1-methyl-1H-imidazol-2-yl)sulfanyl]phenyl}amino)-7-{6-[(4-ethyl-1-piperazinyl)methyl]-3-pyridinyl}-3-quinolinecarbonitrile], the IC50 was above 1000 nM in assay [1] (Homo sapiens, Caco-2, 96 h) and 7.7 nM in assay [2] (Homo sapiens, 96 h).
